# From patent US20210038607A1, “OXADIAZOLYLTHIOPHENE DERIVATIVES USEFUL AS HISTONE DEACETYLASE INHIBITORS” (Karus Therapeutics Limited, priority 2018, published 2021)
# Legend:
# Human HDAC5 = biological target: T1, Human HDAC5 (Homo sapiens, UniProt Q9UQL6); assay: HDAC5 biochemical assay, class IIa-specific substrate; details: read-out: HDAC Isoform IC50 (nM) 5
# T1 construct: full length with C-terminal His tag, MW=51.1 kDa; His (C); host or cells: baculovirus expression system
# How it was run: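 Full-length C-terminal His-tagged HDAC5 from baculovirus (0.05 ng/ul) incubated 30 min at room temperature with 50 μM Boc-Lys(trifluoroacetyl)-AMC and compound, Tris pH 8.0 buffer with BSA, 1% DMSO. Developer then releases AMC; fluorescence 360/460 nm.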
# Human HDAC9 = biological target: T2, Human HDAC9 (Homo sapiens, UniProt Q9UKV0); assay: HDAC9 biochemical assay, class IIa-specific substrate; details: read-out: HDAC Isoform IC50 (nM) 9
# T2 construct: amino acids 604-1066 with C-terminal His tag; His (C); host or cells: baculovirus expression system
# How it was run: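 HDAC9 residues 604-1066 (C-terminal His tag, baculovirus-expressed) at 0.06 ng/ul with 50 μM class IIa substrate Boc-Lys(trifluoroacetyl)-AMC in Tris-HCl pH 8.0 buffer with BSA and 1% DMSO. 30 min at room temperature, then developer added; fluorescence read at 360/460 nm Ex/Em.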
# Recombinant human HDAC6 = biological target: T3, Recombinant human HDAC6 (Homo sapiens, UniProt Q9UBN7); assay: HDAC6 biochemical assay, AMC-labeled peptide substrate; details: HDAC6; read-out: HDAC Isoform IC50 (nM) 6
# T3 construct: full length, MW=159 kDa; GST (N); host or cells: Sf9 insect cells (baculovirus)
# T3 sequence (Q9UBN7 1-1215): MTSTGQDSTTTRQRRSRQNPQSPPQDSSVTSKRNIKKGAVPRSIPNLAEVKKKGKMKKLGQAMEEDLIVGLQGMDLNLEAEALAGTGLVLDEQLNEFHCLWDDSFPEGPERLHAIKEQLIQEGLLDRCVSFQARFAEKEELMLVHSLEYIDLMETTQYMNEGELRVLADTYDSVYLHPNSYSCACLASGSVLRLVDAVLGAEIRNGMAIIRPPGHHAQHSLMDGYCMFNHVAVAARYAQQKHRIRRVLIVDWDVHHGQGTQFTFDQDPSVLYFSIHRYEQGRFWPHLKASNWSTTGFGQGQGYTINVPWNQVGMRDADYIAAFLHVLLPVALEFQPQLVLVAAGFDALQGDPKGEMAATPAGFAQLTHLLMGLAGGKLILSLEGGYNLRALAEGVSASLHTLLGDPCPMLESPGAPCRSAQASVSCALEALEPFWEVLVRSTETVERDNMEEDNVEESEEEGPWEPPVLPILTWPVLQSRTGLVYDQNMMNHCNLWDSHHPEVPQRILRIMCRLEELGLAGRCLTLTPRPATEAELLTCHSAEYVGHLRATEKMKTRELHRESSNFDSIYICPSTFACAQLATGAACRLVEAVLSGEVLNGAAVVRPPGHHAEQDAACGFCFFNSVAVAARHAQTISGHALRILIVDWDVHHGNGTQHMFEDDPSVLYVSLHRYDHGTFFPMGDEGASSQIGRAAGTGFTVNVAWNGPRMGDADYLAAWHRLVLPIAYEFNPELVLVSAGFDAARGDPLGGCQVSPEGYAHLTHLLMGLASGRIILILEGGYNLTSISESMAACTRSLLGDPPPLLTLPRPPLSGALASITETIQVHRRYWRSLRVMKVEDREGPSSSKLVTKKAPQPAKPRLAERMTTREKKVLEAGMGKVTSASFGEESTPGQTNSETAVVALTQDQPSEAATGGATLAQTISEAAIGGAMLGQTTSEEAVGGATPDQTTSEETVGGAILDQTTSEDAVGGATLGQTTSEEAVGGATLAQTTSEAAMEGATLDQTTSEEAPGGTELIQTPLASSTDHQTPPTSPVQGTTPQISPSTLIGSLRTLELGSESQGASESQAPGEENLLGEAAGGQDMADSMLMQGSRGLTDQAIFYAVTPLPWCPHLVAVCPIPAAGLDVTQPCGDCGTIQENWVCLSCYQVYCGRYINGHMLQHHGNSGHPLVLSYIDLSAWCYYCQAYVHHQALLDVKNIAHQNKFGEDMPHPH
# How it was run: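 Two-step fluorogenic read-out: enzyme deacetylates 50 μM RHKK(Ac)AMC for 1 h at 30° C in pH 8.0 Tris buffer with BSA and 1% DMSO, then developer cleavage gives signal at Ex 360/Em 460. Enzyme: 0.3 ng/ul recombinant full-length human HDAC6, GST-tagged, Sf9-expressed.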
# Human HDAC1 = biological target: T4, Human HDAC1 (Homo sapiens, UniProt Q13547); assay: HDAC1 biochemical assay, AMC-labeled peptide substrate; details: read-out: HDAC Isoform IC50 (nM) 1
# T4 construct: full length with C-terminal His-tag and C-terminal FLAG-tag; His (C); FLAG (C); host or cells: baculovirus expression system
# How it was run: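 Baculovirus-expressed full-length human HDAC1 with His and FLAG tags, 0.3 ng/ul, incubated 1 h at 30° C with compound and 50 μM RHKK(Ac)AMC in Tris pH 8.0 buffer with BSA and 1% DMSO. Developer then releases AMC from deacetylated substrate; fluorescence read at 360/460 nm.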
# Human HDAC4 = biological target: T5, Human HDAC4 (Homo sapiens, UniProt P56524); assay: HDAC4 biochemical assay, class IIa-specific substrate; details: read-out: HDAC Isoform IC50 (nM) 4
# T5 construct: amino acids 627-1085 with N-terminal GST tag; GST (N); host or cells: baculovirus expression system
# How it was run: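 GST-tagged human HDAC4 (aa 627-1085, baculovirus) at 0.004 ng/ul was incubated 30 min at room temperature with 50 μM class IIa-specific substrate BOC-Lys(trifluoroacetyl)-AMC in Tris-HCl pH 8.0 buffer with BSA, 1% DMSO. Developer then released AMC, read at 360/460 nm.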
# Human HDAC7 = biological target: T6, Human HDAC7 (Homo sapiens, UniProt Q8WUI4); assay: HDAC7 biochemical assay, class IIa-specific substrate; details: read-out: HDAC Isoform IC50 (nM) 7
# T6 construct: (a.a. 518-end) with N-terminal GST tag; GST (N); host or cells: baculovirus expression system
# T6 sequence (Q8WUI4 518-952 limits assumed): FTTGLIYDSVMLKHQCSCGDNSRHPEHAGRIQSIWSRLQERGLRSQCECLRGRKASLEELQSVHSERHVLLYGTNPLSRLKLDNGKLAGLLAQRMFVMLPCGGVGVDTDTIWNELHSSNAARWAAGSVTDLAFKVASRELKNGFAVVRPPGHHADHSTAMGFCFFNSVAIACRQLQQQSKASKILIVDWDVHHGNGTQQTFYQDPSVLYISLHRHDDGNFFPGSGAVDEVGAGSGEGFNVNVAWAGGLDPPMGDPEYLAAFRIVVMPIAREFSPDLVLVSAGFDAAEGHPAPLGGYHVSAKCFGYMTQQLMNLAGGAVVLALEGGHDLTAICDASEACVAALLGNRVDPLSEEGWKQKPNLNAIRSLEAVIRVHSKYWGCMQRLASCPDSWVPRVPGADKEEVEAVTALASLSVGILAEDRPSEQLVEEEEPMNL
# How it was run: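 GST-tagged HDAC7 (a.a. 518-end, baculovirus-expressed) at 0.001 ng/ul with 50 μM Boc-Lys(trifluoroacetyl)-AMC substrate, 30 min at room temperature in pH 8.0 Tris buffer with BSA, 1% DMSO final. Developer then releases AMC; fluorescence read at 360/460 nm.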
# T4 sequence (Q13547 whole entry, canonical isoform): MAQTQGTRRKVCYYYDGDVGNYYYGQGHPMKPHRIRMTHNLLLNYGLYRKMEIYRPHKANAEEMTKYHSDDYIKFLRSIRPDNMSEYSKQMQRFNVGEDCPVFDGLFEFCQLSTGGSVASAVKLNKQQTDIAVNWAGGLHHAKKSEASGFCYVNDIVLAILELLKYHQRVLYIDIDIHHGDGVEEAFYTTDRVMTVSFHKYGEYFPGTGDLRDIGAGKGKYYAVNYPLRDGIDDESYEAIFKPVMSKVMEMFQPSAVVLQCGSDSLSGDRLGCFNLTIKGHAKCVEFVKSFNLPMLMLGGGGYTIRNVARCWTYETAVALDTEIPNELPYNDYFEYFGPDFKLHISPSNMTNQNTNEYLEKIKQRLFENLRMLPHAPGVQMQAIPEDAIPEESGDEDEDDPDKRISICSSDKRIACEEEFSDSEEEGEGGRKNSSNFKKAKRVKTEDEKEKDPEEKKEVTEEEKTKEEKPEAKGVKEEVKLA
# T5 sequence (P56524 627-1084 limits assumed): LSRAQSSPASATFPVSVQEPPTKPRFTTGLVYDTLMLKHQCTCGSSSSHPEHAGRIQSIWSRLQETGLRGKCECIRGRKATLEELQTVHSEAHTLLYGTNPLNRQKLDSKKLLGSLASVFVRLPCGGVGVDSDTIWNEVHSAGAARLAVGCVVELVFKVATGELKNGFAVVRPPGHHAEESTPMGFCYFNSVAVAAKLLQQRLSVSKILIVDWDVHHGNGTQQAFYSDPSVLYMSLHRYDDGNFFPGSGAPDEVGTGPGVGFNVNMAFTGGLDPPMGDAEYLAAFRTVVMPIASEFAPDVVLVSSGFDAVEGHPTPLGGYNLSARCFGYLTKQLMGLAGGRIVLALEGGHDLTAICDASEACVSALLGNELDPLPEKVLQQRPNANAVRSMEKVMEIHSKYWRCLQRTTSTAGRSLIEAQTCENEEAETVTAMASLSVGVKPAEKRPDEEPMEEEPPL
# T2 sequence (Q9UKV0 604-1066 isoform Q9UKV0-5): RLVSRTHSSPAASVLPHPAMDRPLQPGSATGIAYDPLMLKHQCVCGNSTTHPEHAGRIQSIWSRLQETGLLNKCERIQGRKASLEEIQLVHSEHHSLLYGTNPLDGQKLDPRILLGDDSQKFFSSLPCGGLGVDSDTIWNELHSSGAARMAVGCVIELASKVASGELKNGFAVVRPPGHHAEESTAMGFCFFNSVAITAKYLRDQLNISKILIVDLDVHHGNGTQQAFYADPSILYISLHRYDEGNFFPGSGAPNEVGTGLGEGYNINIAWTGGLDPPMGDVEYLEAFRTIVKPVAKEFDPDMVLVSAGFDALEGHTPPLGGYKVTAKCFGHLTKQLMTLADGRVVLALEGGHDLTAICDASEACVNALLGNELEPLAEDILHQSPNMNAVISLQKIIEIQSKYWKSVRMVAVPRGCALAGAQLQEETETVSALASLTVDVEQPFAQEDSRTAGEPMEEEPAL
# T1 sequence (Q9UQL6 656-1122 limits assumed): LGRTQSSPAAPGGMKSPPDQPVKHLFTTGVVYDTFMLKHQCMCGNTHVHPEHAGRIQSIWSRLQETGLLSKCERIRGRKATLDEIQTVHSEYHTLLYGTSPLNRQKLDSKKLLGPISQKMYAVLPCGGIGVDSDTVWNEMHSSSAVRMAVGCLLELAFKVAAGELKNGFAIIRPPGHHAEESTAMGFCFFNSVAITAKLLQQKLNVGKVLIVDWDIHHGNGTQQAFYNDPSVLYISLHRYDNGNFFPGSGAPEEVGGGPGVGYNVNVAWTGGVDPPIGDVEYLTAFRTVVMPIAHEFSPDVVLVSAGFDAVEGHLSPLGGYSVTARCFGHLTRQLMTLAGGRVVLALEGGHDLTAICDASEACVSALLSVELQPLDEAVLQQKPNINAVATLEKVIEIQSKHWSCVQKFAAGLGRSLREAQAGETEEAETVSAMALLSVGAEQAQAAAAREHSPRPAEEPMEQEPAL
IC50 (Human HDAC5) [nM],IC50 (Human HDAC9) [nM],IC50 (Recombinant human HDAC6) [nM],IC50 (Human HDAC1) [nM],IC50 (Human HDAC4) [nM],IC50 (Human HDAC7) [nM],Compound
≤ 10000,> 10000,≤ 10000,> 10000,≤ 10000,≤ 10000,"FC(F)(F)c1cnnc(N(Cc2ccc(-c3noc(C(F)(F)F)n3)s2)c2ncccc2N2CCOCC2)c1 [Example EH, N-[3-(Morpholin-4-yl)pyridin-2-yl]-5-(trifluoromethyl)-N-({5-[5-(trifluoromethyl)-1,2,4-oxadiazol-3-yl]thiophen-2-yl}methyl)pyridazin-3-amine]"
≤ 500,≤ 10000,≤ 10000,> 10000,≤ 500,≤ 500,"CS(=O)(=O)c1ncc(N(Cc2ccc(-c3noc(C(F)(F)F)n3)s2)c2cnccn2)cn1 [Example CW, 2-Methanesulfonyl-N-(pyrazin-2-yl)-N-({5-[5-(trifluoromethyl)-1,2,4-oxadiazol-3-yl]thiophen-2-yl}methyl)pyrimidin-5-amine]"
≤ 10000,≤ 10000,≤ 10000,> 10000,≤ 10000,≤ 10000,"FC(F)(F)c1nc(-c2ccc(CN(c3cnccn3)c3cccc(N4CCOCC4)n3)s2)no1 [Example W, N-[6-(Morpholin-4-yl)pyridin-2-yl]-N-({5-[5-(trifluoromethyl)-1,2,4-oxadiazol-3-yl]thiophen-2-yl}methyl)pyrazin-2-amine]"
≤ 500,≤ 1000,≤ 10000,> 10000,≤ 500,≤ 500,"COc1ncc(N(Cc2ccc(-c3noc(C(F)(F)F)n3)s2)c2cnccn2)cn1 [Example CT, 2-Methoxy-N-(pyrazin-2-yl)-N-({5-[5-(trifluoromethyl)-1,2,4-oxadiazol-3-yl]thiophen-2-yl}methyl)pyrimidin-5-amine]"
≤ 1000,≤ 1000,≤ 1000,≤ 10000,≤ 500,≤ 1000,"FC(F)(F)c1nc(-c2ccc(CN(c3cnccn3)c3ccc(-n4cccn4)nn3)s2)no1 [Example DM, N-(Pyrazin-2-yl)-6-(1H-pyrazol-1-yl)-N-({5-[5-(trifluoromethyl)-1,2,4-oxadiazol-3-yl]thiophen-2-yl}methyl)pyridazin-3-amine]"
≤ 10000,> 10000,≤ 10000,> 10000,≤ 10000,≤ 10000,"COc1cnc(N(Cc2ccc(-c3noc(C(F)(F)F)n3)s2)c2cc(C(F)(F)F)cnn2)cn1 [Example EP, N-(5-Methoxypyrazin-2-yl)-5-(trifluoromethyl)-N-({5-[5-(trifluoromethyl)-1,2,4-oxadiazol-3-yl]thiophen-2-yl}methyl)pyridazin-3-amine]"
≤ 10000,≤ 10000,≤ 10000,> 10000,≤ 10000,≤ 10000,"FC(F)(F)c1nc(-c2ccc(CN(c3cnccn3)c3nccc4ncccc34)s2)no1 [Example AJ, N-(Pyrazin-2-yl)-N-({5-[5-(trifluoromethyl)-1,2,4-oxadiazol-3-yl]thiophen-2-yl}methyl)-1,6-naphthyridin-5-amine]"
≤ 10000,≤ 10000,≤ 10000,≤ 10000,≤ 1000,≤ 10000,"FC(F)(F)c1nc(-c2ccc(CN(c3cnccn3)c3cnc(-c4ccco4)cn3)s2)no1 [Example BJ, 5-(Furan-2-yl)-N-(pyrazin-2-yl)-N-({5-[5-(trifluoromethyl)-1,2,4-oxadiazol-3-yl]thiophen-2-yl}methyl)pyrazin-2-amine]"
≤ 1000,≤ 10000,≤ 1000,> 10000,≤ 10000,≤ 10000,"Cc1cc(N(Cc2ccc(-c3noc(C(F)(F)F)n3)s2)c2cnccn2)ncn1 [Example CG, 6-Methyl-N-(pyrazin-2-yl)-N-({5-[5-(trifluoromethyl)-1,2,4-oxadiazol-3-yl]thiophen-2-yl}methyl)pyrimidin-4-amine]"
≤ 1000,≤ 10000,≤ 1000,> 10000,≤ 10000,≤ 10000,"FC(F)(F)c1cnnc(N(Cc2ccc(-c3noc(C(F)(F)F)n3)s2)c2ccncn2)c1 [Example EL, N-(Pyrimidin-4-yl)-5-(trifluoromethyl)-N-({5-[5-(trifluoromethyl)-1,2,4-oxadiazol-3-yl]thiophen-2-yl}methyl)pyridazin-3-amine]"
≤ 1000,≤ 10000,≤ 10000,> 10000,≤ 10000,≤ 10000,"FC(F)(F)c1cncc(N(Cc2ccc(-c3noc(C(F)(F)F)n3)s2)c2cnccn2)c1 [Example AQ, N-({5-[5-(Trifluoromethyl)-1,2,4-oxadiazol-3-yl]thiophen-2-yl}methyl)-N-[5-(trifluoromethyl)pyridin-3-yl]pyrazin-2-amine]"
≤ 10000,≤ 10000,≤ 10000,> 10000,≤ 1000,≤ 10000,"FC(F)(F)c1nc(-c2ccc(CN(c3cnccn3)c3cnsn3)s2)no1 [Example S, N-(1,2,5-Thiadiazol-3-yl)-N-({5-[5-(trifluoromethyl)-1,2,4-oxadiazol-3-yl]thiophen-2-yl}methyl)pyrazin-2-amine]"
